The MIC is the smallest concentration in the dilution series that meets the test's criterion for growth inhibition.

Values after ≈ are worked out from the molar mass of the structure shown.

Common to all, as to type: functional
The subject of experiment [1] is Klebsiella pneumoniae. Description: Antimicrobial activity against Klebsiella pneumoniae ATCC 10031 assessed as growth inhibition after 24 hr by broth dilution assay method. The settings on record: ATCC 10031, 24 h.
The test system of experiment [2] is Bacillus subtilis. Kind of experiment: Antimicrobial activity against Bacillus subtilis ATCC 60511 assessed as growth inhibition after 24 hr by broth dilution assay method. The note with it: ATCC 60511, 24 h.
The test system of experiment [3] is Enterococcus faecalis. Description: Antimicrobial activity against […] ATCC 14506 assessed as growth inhibition after 24 hr by broth dilution assay method. The note with it: ATCC 14506, 24 h. Background: Dilution methods test growth across graded concentrations, often in twofold steps.
In experiment [4] the test system is Staphylococcus aureus. Kind of experiment: Antimicrobial activity against Staphylococcus aureus ATCC 11632 assessed as growth inhibition after 24 hr by broth dilution assay method. The settings on record: ATCC 11632, 24 h.
In experiment [5] the test system is Aspergillus niger. Description: Antimicrobial activity against Aspergillus niger ATCC 6275 assessed as growth inhibition after 24 hr by broth dilution assay method. The note with it: ATCC 6275, 24 h.
The subject of experiment [6] is Candida tropicalis. Kind of experiment: Antimicrobial activity against Candida tropicalis ATCC 1369 assessed as growth inhibition after 24 hr by broth dilution assay method. The settings on record: ATCC 1369, 24 h.
Experiment [7] concerns Saccharomyces cerevisiae. Description: Antimicrobial activity against Saccharomyces cerevisiae ATCC 9763 assessed as growth inhibition after 24 hr by broth dilution assay method. The settings on record: ATCC 9763, 24 h.
The subject of experiment [8] is Pseudomonas aeruginosa. Description: Antimicrobial activity against Pseudomonas aeruginosa ATCC 10145 assessed as growth inhibition after 24 hr by broth dilution assay method. The settings on record: ATCC 10145, 24 h.
The subject of experiment [9] is Escherichia coli. Description: Antimicrobial activity against Escherichia coli ATCC 10536 assessed as growth inhibition after 24 hr by broth dilution assay method. The settings on record: ATCC 10536, 24 h.
The test system of experiment [10] is Mycobacterium tuberculosis. Kind of experiment: Antitubercular activity against Mycobacterium tuberculosis H37Rv assessed as growth inhibition after 21 days by broth dilution assay method. The settings on record: 504 h.

On to `CC(C)c1csc(-c2nnc(SCc3nnc(-c4ccc(O)cc4)o3)n2-c2ccccc2)n1`, for which the MIC in experiment [1] turned out to be 125 µg/mL (≈ 262 µM); in experiment [2], 31.2 µg/mL (≈ 65.6 µM); in [3] it was 62.5 µg/mL (≈ 131 µM); in experiment [4], 31.2 µg/mL (≈ 65.6 µM); in experiment [5], 31.2 µg/mL (≈ 65.6 µM); in experiment [6], 31.2 µg/mL (≈ 65.6 µM). For the same molecule, the figures for the MIC in experiment [7], in experiment [8] and in experiment [9] were 31.2 µg/mL (≈ 65.6 µM), 31.2 µg/mL (≈ 65.6 µM) and 62.5 µg/mL (≈ 131 µM), respectively.
Turning to `CC(=O)NNC(=O)CSc1nnc(-c2nc(C(C)C)cs2)n1-c1ccccc1`, the MIC stood at 31.2 µg/mL (≈ 75 µM) in experiment [1]; 62.5 µg/mL (≈ 150 µM) in [2]; 125 µg/mL (≈ 300 µM) in experiment [3]; 125 µg/mL (≈ 300 µM) in experiment [4]; 62.5 µg/mL (≈ 150 µM) in experiment [10]; 8 µg/mL (≈ 19.2 µM) in [5]. Also, the MIC was determined as 8 µg/mL (≈ 19.2 µM) in experiment [6], 16 µg/mL (≈ 38.4 µM) in experiment [7], 125 µg/mL (≈ 300 µM) in experiment [8] and 62.5 µg/mL (≈ 150 µM) in experiment [9].
In the case of `CCOC(=O)CSc1nnc(-c2nc(C(C)C)cs2)n1-c1ccccc1`, the MIC in experiment [1] is 125 µg/mL (≈ 322 µM); in experiment [2], 62.5 µg/mL (≈ 161 µM); in [3] it was 125 µg/mL (≈ 322 µM); in experiment [4], 125 µg/mL (≈ 322 µM); in experiment [10], 125 µg/mL (≈ 322 µM); in [5], 62.5 µg/mL (≈ 161 µM). Also, the MIC was determined as 125 µg/mL (≈ 322 µM) in experiment [6], 62.5 µg/mL (≈ 161 µM) in experiment [7], 62.5 µg/mL (≈ 161 µM) in [8] and 125 µg/mL (≈ 322 µM) in [9].
Consider `COc1ccc(/C=N/NC(=O)CSc2nnc(-c3nc(C(C)C)cs3)n2-c2ccccc2)cc1OC`, for which the MIC in experiment [1] came to 16 µg/mL (≈ 30.6 µM); in experiment [2] it was 8 µg/mL (≈ 15.3 µM); in experiment [3], 12 µg/mL (≈ 23 µM); in experiment [4], 8 µg/mL (≈ 15.3 µM); in experiment [10] it was 8 µg/mL (≈ 15.3 µM); in experiment [5], 16 µg/mL (≈ 30.6 µM). Moreover, the MIC in experiment [6] worked out at 31.2 µg/mL (≈ 59.8 µM); in experiment [7] it was 16 µg/mL (≈ 30.6 µM); in experiment [8], 31.2 µg/mL (≈ 59.8 µM); in experiment [9], 16 µg/mL (≈ 30.6 µM).
For `CC(C)c1csc(-c2nnc(SCC(=O)N/N=C/c3ccc(Cl)cc3)n2-c2ccccc2)n1`, the MIC was 62.5 µg/mL (≈ 126 µM) in experiment [1]; 31.2 µg/mL (≈ 62.9 µM) in experiment [2]; 31.2 µg/mL (≈ 62.9 µM) in [3]; 62.5 µg/mL (≈ 126 µM) in experiment [4]; 125 µg/mL (≈ 251 µM) in experiment [10]; 31.2 µg/mL (≈ 62.9 µM) in [5]. Further, the MIC came out at 31.2 µg/mL (≈ 62.9 µM) in experiment [6], 16 µg/mL (≈ 32.2 µM) in experiment [7], 62.5 µg/mL (≈ 126 µM) in experiment [8] and 31.2 µg/mL (≈ 62.9 µM) in [9].
Take `COc1cc(/C=N/NC(=O)CSc2nnc(-c3nc(C(C)C)cs3)n2-c2ccccc2)ccc1O`: the MIC in experiment [1] turned out to be 8 µg/mL (≈ 15.7 µM); in [2], 16 µg/mL (≈ 31.5 µM); in [3] it was 125 µg/mL (≈ 246 µM); in experiment [4], 125 µg/mL (≈ 246 µM); in experiment [10], 31.2 µg/mL (≈ 61.4 µM); in experiment [5], 31.2 µg/mL (≈ 61.4 µM). Further, the MIC stood at 62.5 µg/mL (≈ 123 µM) in experiment [6], 16 µg/mL (≈ 31.5 µM) in experiment [7], 16 µg/mL (≈ 31.5 µM) in [8] and 8 µg/mL (≈ 15.7 µM) in experiment [9].
`CC(C)c1csc(-c2nnc(SCC(=O)N/N=C/c3cccc([N+](=O)[O-])c3)n2-c2ccccc2)n1`: the MIC in [1] stood at 16 µg/mL (≈ 31.5 µM); in [2] it was 31.2 µg/mL (≈ 61.6 µM); in experiment [3], 31.2 µg/mL (≈ 61.6 µM); in [4], 125 µg/mL (≈ 246 µM); in experiment [10] it was 62.5 µg/mL (≈ 123 µM); in experiment [5] it was 125 µg/mL (≈ 246 µM). Besides, the MIC is 31.2 µg/mL (≈ 61.6 µM) in experiment [6], 62.5 µg/mL (≈ 123 µM) in experiment [7], 62.5 µg/mL (≈ 123 µM) in [8] and 31.2 µg/mL (≈ 61.6 µM) in experiment [9].
For `O=C(O)c1cn(C2CC2)c2cc(N3CCNCC3)c(F)cc2c1=O` [CIPROFLOXACIN], the MIC was at most 1 µg/mL in experiment [1]; at most 1 µg/mL in experiment [2]; at most 5 µg/mL in [3]; at most 5 µg/mL in [4]; at most 5 µg/mL in experiment [8]; at most 1 µg/mL in [9].
As for `OC(Cn1cncn1)(Cn1cncn1)c1ccc(F)cc1F` [FLUCONAZOLE], the MIC in experiment [5], in experiment [6] and in experiment [7] was at most 1 µg/mL in each case.
In the case of `NNC(=O)c1ccncc1` [ISONIAZID], in experiment [10], the MIC is 0.25 µg/mL (≈ 1.82 µM).
For `CCn1cc(C(=O)O)c(=O)c2cc(F)c(N3CCNCC3)cc21` [NORFLOXACIN], the MIC in experiment [1] is at most 1 µg/mL; in experiment [2], at most 1 µg/mL; in [3], at most 5 µg/mL; in [4], at most 5 µg/mL; in [8] it was at most 5 µg/mL; in experiment [9] it was at most 1 µg/mL.

Source of the values: ChEMBL document CHEMBL3045230, “Synthesis and pharmacological evaluation of novel 4-isopropylthiazole-4-phenyl-1,2,4-triazole derivatives as potential antimicrobial and antitubercular agents” (Med Chem Res, 2013).
